Reference: PubChem BioAssay (NCI)
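How tested: cells in 96-well plates exposed to compound for 48 hours at five concentrations. Definition used: TGI = concentration required for complete inhibition of growth.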

Legend:
Test in all cases: NCI anticancer screen, dose series, 48 h
RXF 393 renal = tested on: RXF 393 renal
OVCAR-3 ovarian = tested on: OVCAR-3 ovarian
PC-3 prostate = tested on: PC-3 prostate
UACC-62 melanoma = tested on: UACC-62 melanoma
IGROV1 ovarian = tested on: IGROV1 ovarian
786-0 renal = tested on: 786-0 renal
EKVX NSCLC = tested on: EKVX NSCLC
SNB-19 CNS = tested on: SNB-19 CNS
M14 melanoma = tested on: M14 melanoma
NCI-H226 lung = tested on: NCI-H226 lung

SMILES | TGI (RXF 393 renal) | TGI (OVCAR-3 ovarian) | TGI (PC-3 prostate) | TGI (UACC-62 melanoma) | TGI (IGROV1 ovarian) | TGI (786-0 renal) | TGI (EKVX NSCLC) | TGI (SNB-19 CNS) | TGI (M14 melanoma) | TGI (NCI-H226 lung)
OCCCCCNc1c2ccccc2nc2ccccc12 | 10.9 µM | > 28.8 µM | 7.2 µM | 3.92 µM | 12.2 µM | 12.9 µM | 17.5 µM | 10.8 µM | 6.91 µM | 
COC(=O)C(/C(=N/NC(N)=O)C(=O)Nc1ccc(C)cc1)c1nc2ccc([N+](=O)[O-])cc2[nH]c1=O (stereo not drawn) | > 100 µM | > 100 µM | > 100 µM | > 100 µM | > 100 µM | > 100 µM | > 100 µM |  | > 100 µM | > 100 µM
OCC1CCCCCCCCCCC12SCCCS2 (stereo not drawn) |  | > 100 µM | > 100 µM | > 100 µM | > 100 µM | > 100 µM | > 100 µM | > 100 µM | > 100 µM | > 100 µM
Brc1ccc(CCNCCN2CCCCC2)cc1 | 49.8 µM | 29.7 µM | 31.7 µM |  | 31 µM | 27.5 µM | > 100 µM | 34 µM | 29.6 µM | 59 µM
CC1=C2C(=O)NN=C2CCN1c1ccc(Br)cc1 |  | > 100 µM | > 100 µM | > 100 µM | > 100 µM | > 100 µM | > 100 µM | > 100 µM | > 100 µM | > 100 µM
C/C(CCOC1CCCCO1)=C(\C)[Si](C)(C)C (stereo not drawn) |  | > 100 µM |  | > 100 µM | > 100 µM |  | > 100 µM | > 100 µM | > 100 µM | 
CC1(C)CC(/C=C2/OC(=O)c3ccccc32)=C(C#N)C(=O)O1 |  | > 100 µM |  | > 100 µM | > 100 µM | > 100 µM | > 100 µM | > 100 µM | > 100 µM | > 100 µM
c1ccc2c(c1)OC(N1CCCC1)c1cnc(N3CCCC3)nc1-2 (stereo not drawn) | 47.8 µM | 97.5 µM | > 100 µM | > 100 µM |  | > 100 µM | 58.5 µM | > 100 µM | > 100 µM | > 100 µM
O=C(Nc1ccc(Br)cc1)c1c(-c2ccccc2)c2ccc(O)cc2oc1=O | > 10 µM | > 10 µM | > 10 µM |  | > 10 µM | > 10 µM | > 10 µM |  | > 10 µM | > 10 µM
CCOC(=O)CNC(=O)C(CSCc1ccc(Br)cc1)NC(=O)CCC(N)C(=O)OCC (stereo not drawn) | > 50 µM | > 50 µM | > 50 µM | > 50 µM | > 50 µM | > 50 µM | > 50 µM | > 50 µM | > 50 µM | 
COCCOCOc1ccc(OCc2ccccc2)cc1 | > 100 µM | > 100 µM |  | > 100 µM | > 100 µM |  | 97.3 µM | > 100 µM |  | > 100 µM
Nc1cc(CO)cc(Nc2nc3ccc(Cl)cc3c3[nH]c4ccccc4c23)c1 |  |  | 19.1 µM | 5.55 µM | 8.93 µM | 6.83 µM | 15.1 µM | 44.9 µM | 16.7 µM | 
OCc1ccc2[n+](c1)CCC1c3ccccc3NC21 (stereo not drawn) | > 300 µM | > 300 µM |  | > 300 µM | > 300 µM | > 300 µM | > 300 µM | > 300 µM |  | > 300 µM
C=C1CC(COc2cc(=O)oc3ccccc23)(c2ccccc2)OC1=O (stereo not drawn) |  | 1.87 µM | 5.9 µM | 2.92 µM | 3.07 µM | 2.96 µM | 13.5 µM | 37.3 µM | 3.3 µM | 19.3 µM
COC(=O)C(CCC#N)(CCC#N)C(=O)OC |  | > 100 µM |  | > 100 µM | > 100 µM | > 100 µM | > 100 µM | > 100 µM | > 100 µM | > 100 µM
CC(O[Si](c1ccccc1)(c1ccccc1)C(C)(C)C)[C@H](NC(=O)OC(C)(C)C)C(=O)O[Si](c1ccccc1)(c1ccccc1)C(C)(C)C (stereo partly drawn) | 26.9 µM |  | 20.5 µM |  | 31.9 µM | 25.9 µM | 26.4 µM | 29.8 µM | 29.4 µM | 
CCOC(=O)C1Cc2[nH]c3ccccc3c2C(C)C1C (stereo not drawn) |  | 30.1 µM |  | 22.7 µM | 33.9 µM | 28.2 µM | 31.2 µM | 34.5 µM | 30.7 µM | 25.3 µM
NC(=O)N/N=C(\Cc1nc2ccc(Cl)cc2[nH]c1=O)C(=O)Nc1ccc(Cl)cc1Cl |  | > 100 µM | > 100 µM | > 100 µM | > 100 µM | > 100 µM | > 100 µM | > 100 µM | > 100 µM | > 100 µM
